# Data published in publication PMC10895678 (Journal of Medicinal Chemistry, 2024).
# Where “and” joins values, the source holds several entries; their conditions need not be identical. Equal values may be shown once. Read-outs that look alike come from different tables or passages of the source.
# Experiment: Mouse PK, combined (cassette) dosing of BGAz-001–005
# Assay type: in vivo, KM mice
# Parameters: AUMC(0-t) / VRT(0-t) / λz: unit not given here
# Conditions: for AUC(0-t): read-out: AUC(0-t); for MRT last: read-out: MRT(0-t); for MRT inf: read-out: MRT(0-∞); for Vd/F: read-out: Vz/F
# Source text: Methods for combined single dosing (BGAz001–005) and dosing of single compounds multiple times (BGAz004 and BGAz005) are described in detail in the Supporting Information (PK Data).
# Report on PK Results of Combined Dosing with BGAz-001–005
# 1 Materials and instrument combined dosing
# An MS2 Turnover type oscillator was purchased from IKA Work’s Guangzhou (China), and a 5415R ChromatographicanalyseswereconductedusinganAgilent1290InfinityIIhighperformanceliquidchromatography andAgilentTechnologies6470TripleQuadLC/MS.Propranolol(≥90%inpurity,internalstandard,IS)waspurchased fromtheSigmaChemicalCo.(China).Formicacid(HPLCgrade)andmethanol(HPLCgrade)werepurchasedfrom DIKMACo.(China).Allchemicalsandsolventswereanalyticalgrade.WaterwaspurifiedusingaMillipore(AK,USA) laboratoryultra-purewatersystem(0.2μmfilter).
# KMmice,weighing25–35g(BeijingVitalRiverLaboratoryAnimalTechnologyCo.,Ltd.,China)wereutilisedforthe studies.The protocols were approved by the Animal Care and Use Committee, GIBH. Animals were maintained on standard animal chow and waterad libitum, in a climate-controlled room (23±1 °C 30–70% relative humidity, a minimumof tenexchangesof roomairperhouranda12hlight/darkcycle)foroneweekpriortoexperiments.
# 3 Pharmacokinetic studies
# Compounds BGAz-001 ，BGAz-002 ，BGAz-003 ，BGAz-004 and BGAz-005 were dissolved mixed in a solution containing DMSO (2%),ethanol (4%), Cremophor EL (4%) and ddH2O (90%); Pharmacokinetic propertiesof KM (male) were determined following IV, PO and IP administration. Animals were randomly distributed into three experimentalgroups(n=4).ThePOgroupwasgivenmixedsolutionwith5mg/kgbygastricgavage.TheIVgroup was dosed with mixed solution 1mg/kg byinjection into the tail vein. The IP group was dosed with mixed solution 1mg/kg by intraperitoneal injection. After single administration, whole blood samples (100 μL) were obtained from the orbital venousplexus atthe followingtime pointsafter dosing:5, 15,30 minand 1,3, 5,8, 24hour (PO and IP groups) and at the following time points after dosing 2, 10, 30min and 1, 3, 5, 8,24 hour (IV group). Wholeblood samples were collected in heparinised tubes. The plasma fraction was immediately separated by centrifugation. The micewerehumanelyeuthanasiabycarbondioxide24hoursafterexperimentwithoutpain.
# 4 Plasma sample and brain sample analysis
# 4.1 Standard curve sample preparation
# ThecompoundsweredissolvedinDMSO(2mg/mL)anddilutedwithtoseriesconcentration(methanol:H 2O,1:1,10 μL) and blank plasma (50 μL) were added to 1.5 mL tubes and vortexed for 3 min, then acetonitrile-containing internalstandard(150μL)wasaddedandvortexedforafurther5min,andsubsequentlyspuninacentrifugeat13000 […]
# 4.2 Plasma and preparation
# Plasmasampleswerepreparedusingaproteinprecipitationmethod.Solution(10μL,methanolH 2O,1:1)andplasma samples(50μL)wereaddedto1.5mLtubesandvortexfor3min,thenacetonitrile-containinginternalstandard(150 μL)wasaddedandvortexfor5min,andsubsequentlyspuninacentrifugeat13000× gfor40minat4°C.
# Aftercentrifugation,supernatant(100μL)wastransferto96wellplatesandanalysedbyLC-MS/MSusinganAgilent 1290InfinityIIHPLCandanAgilentTechnologies6470TripleQuadLC/MS.
# [1] = IP 1 mg/kg, cassette, mean of animals
# [2] = IV 1 mg/kg, cassette, mean of animals
# [3] = PO 5 mg/kg, cassette, mean of animals
# [4] = male, KM, mouse, plasma, IP 1 mg/kg, cassette
# [5] = male, KM, mouse, plasma, IP 1 mg/kg, cassette, mean of animals
# [6] = male, KM, mouse, plasma, IV 1 mg/kg, cassette
# [7] = male, KM, mouse, plasma, IV 1 mg/kg, cassette, mean of animals
# [8] = male, KM, mouse, plasma, PO 5 mg/kg, cassette
# [9] = male, KM, mouse, plasma, PO 5 mg/kg, cassette, mean of animals
smiles,measurement,setting,value
Brc1cc(Br)cc(C2CC(CN3CCCC3)N2Cc2ccccc2Br)c1 (stereo not drawn) [BGAz-004],AUMC(0-t),[1],3591.68 **μg
same,AUMC(0-∞),[1],7580.816 **μg
same,CLz/F,[1],1.737 L/kg
same,C_last,[1],7.173 µg
same,R_AUC(t/∞),[1],82.475%
same,VRT(0-t),[1],44.576 ^2
same,VRT(0-∞),[1],210.175 ^2
same,λz,[1],0.071 1/
same,AUC(0-∞),"IP 1 mg/kg, cassette, summary table",581.359 µg·h
same,AUMC(0-t),[2],5267.479 **μg
same,AUMC(0-∞),[2],9388.553 **μg
same,CLz/F,[2],1.659 L/kg
same,C_last,[2],6.542 µg
same,R_AUC(t/∞),[2],90.625%
same,VRT(0-t),[2],43.967 ^2
same,VRT(0-∞),[2],134.645 ^2
same,Vz/F,[2],17.622 L/kg
same,λz,[2],0.091 1/
same,AUC(0-∞),"IV 1 mg/kg, cassette, summary table",789.43 µg·h
same,BA,"PO 5 mg/kg vs IV 1 mg/kg, cassette",35.64%
same,AUMC(0-t),[3],7719.114 **μg
same,AUMC(0-∞),[3],23536.035 **μg
same,CLz/F,[3],3.927 L/kg
same,C_last,[3],32.311 µg
same,R_AUC(t/∞),[3],62.325%
same,VRT(0-t),[3],36.246 ^2
same,VRT(0-∞),[3],301.909 ^2
same,λz,[3],0.069 1/
same,AUC(0-∞),"PO 5 mg/kg, cassette, summary table",1406.796 µg·h
same,AUC(0-inf),"male, KM, mouse, plasma, ip, 1 mg/kg, IP 1 mg/kg, cassette, mean of animals, read-out: AUC(0-∞)",581 ng·h/mL
same,Cmax,"male, KM, mouse, plasma, ip, 1 mg/kg, IP 1 mg/kg, cassette, mean of animals, read-out: Cmax",61 ng/mL
same,Tmax,"male, KM, mouse, plasma, ip, 1 mg/kg, IP 1 mg/kg, cassette, mean of animals, read-out: Tmax",0.271 h
same,Cmax,"male, KM, mouse, plasma, ip, 1 mg/kg, IP 1 mg/kg, cassette, summary table, read-out: Cmax",61 ng/mL
same,half-life,"male, KM, mouse, plasma, ip, 1 mg/kg, IP 1 mg/kg, cassette, summary table, read-out: T1/2 (converted)",9.82 h
same,Tmax,"male, KM, mouse, plasma, ip, 1 mg/kg, IP 1 mg/kg, cassette, summary table, read-out: Tmax",0.271 h
same,AUC(0-inf),"male, KM, mouse, plasma, iv, 1 mg/kg, IV 1 mg/kg, cassette, mean of animals, read-out: AUC(0-∞)",789 ng·h/mL
same,Cmax,"male, KM, mouse, plasma, iv, 1 mg/kg, IV 1 mg/kg, cassette, mean of animals, read-out: Cmax",278 ng/mL
same,Tmax,"male, KM, mouse, plasma, iv, 1 mg/kg, IV 1 mg/kg, cassette, mean of animals, read-out: Tmax",0.033 h
same,Cmax,"male, KM, mouse, plasma, iv, 1 mg/kg, IV 1 mg/kg, cassette, summary table, read-out: Cmax",278 ng/mL
same,half-life,"male, KM, mouse, plasma, iv, 1 mg/kg, IV 1 mg/kg, cassette, summary table, read-out: T1/2 (converted)",8.29 h
same,Tmax,"male, KM, mouse, plasma, iv, 1 mg/kg, IV 1 mg/kg, cassette, summary table, read-out: Tmax",0.033 h
same,AUC(0-inf),"male, KM, mouse, plasma, po, 5 mg/kg, 5 mg/kg PO, cassette dosing, read-out: AUC0-inf",1410 ng·h/mL
same,Cmax,"male, KM, mouse, plasma, po, 5 mg/kg, 5 mg/kg PO, cassette dosing, read-out: Cmax (Mouse, P.O.)",87.6 ng/mL
same,half-life,"male, KM, mouse, plasma, po, 5 mg/kg, 5 mg/kg PO, cassette dosing, read-out: T1/2 (Mouse, P.O.) (converted)",11.4 h
same,Tmax,"male, KM, mouse, plasma, po, 5 mg/kg, 5 mg/kg PO, cassette dosing, read-out: Tmax (Mouse, P.O.)",0.87 h
same,AUC(0-inf),"male, KM, mouse, plasma, po, 5 mg/kg, PO 5 mg/kg, cassette, mean of animals, read-out: AUC(0-∞)",1410 ng·h/mL
same,Cmax,"male, KM, mouse, plasma, po, 5 mg/kg, PO 5 mg/kg, cassette, mean of animals, read-out: Cmax",87.6 ng/mL
same,Tmax,"male, KM, mouse, plasma, po, 5 mg/kg, PO 5 mg/kg, cassette, mean of animals, read-out: Tmax",0.875 h
same,Cmax,"male, KM, mouse, plasma, po, 5 mg/kg, PO 5 mg/kg, cassette, summary table, read-out: Cmax",87.6 ng/mL
same,half-life,"male, KM, mouse, plasma, po, 5 mg/kg, PO 5 mg/kg, cassette, summary table, read-out: T1/2 (converted)",11.4 h
same,Tmax,"male, KM, mouse, plasma, po, 5 mg/kg, PO 5 mg/kg, cassette, summary table, read-out: Tmax",0.875 h
same,concentration at 0.083 h,[4],55.3 ng/mL and 100 nM
same,concentration at 0.25 h,[4],110 nM and 60.1 ng/mL
same,concentration at 0.5 h,[4],90 nM and 50.3 ng/mL
same,concentration at 1 h,[4],70 nM and 39.4 ng/mL
same,concentration at 3 h,[4],60 nM and 31 ng/mL
same,concentration at 5 h,[4],50 nM and 24.4 ng/mL
same,concentration at 8 h,[4],40 nM and 21.8 ng/mL
same,concentration at 24 h,[4],10 nM and 7.15 ng/mL
same,AUC(0-t),[5],478 ng·h/mL
same,MRT last,[5],7.49 h
same,MRT inf,[5],12.9 h
same,Vd/F,[5],24.4 L/kg
same,concentration at 0.033 h,"male, KM, mouse, plasma, IV 1 mg/kg, cassette, 0.033 h",278 ng/mL and 520 nM
same,concentration at 0.167 h,"male, KM, mouse, plasma, IV 1 mg/kg, cassette, 0.167 h",270 nM and 148 ng/mL
same,concentration at 0.5 h,[6],160 nM and 84.6 ng/mL
same,concentration at 1 h,[6],170 nM and 89.6 ng/mL
same,concentration at 3 h,[6],80 nM and 40.5 ng/mL
same,concentration at 5 h,[6],50 nM and 28.3 ng/mL
same,concentration at 8 h,[6],40 nM and 21.6 ng/mL
same,concentration at 24 h,[6],30 nM and 15.1 ng/mL
same,C0,[7],327 ng/mL
same,AUC(0-t),[7],688 ng·h/mL
same,MRT last,[7],6.4 h
same,MRT inf,[7],9.25 h
same,concentration at 0.083 h,[8],17.3 ng/mL and 30 nM
same,concentration at 0.25 h,[8],80 nM and 42.6 ng/mL
same,concentration at 0.5 h,[8],120 nM and 65.1 ng/mL
same,concentration at 1 h,[8],160 nM and 84.4 ng/mL
same,concentration at 3 h,[8],130 nM and 68.4 ng/mL
same,concentration at 5 h,[8],120 nM and 63.3 ng/mL
same,concentration at 8 h,[8],110 nM and 60.5 ng/mL
same,concentration at 24 h,[8],40 nM and 22.2 ng/mL
same,AUC(0-t),[9],945 ng·h/mL
same,MRT last,[9],6.82 h
same,MRT inf,[9],15.7 h
same,Vd/F,[9],58.1 L/kg
